Target: GST-Bc1-2 (Homo sapiens, UniProt P10415)
Experiment: Time Resolved-Fluorescence Resonance Energy Transfer (TR-FRET) Bcl-2 binding assay with F-Bak peptide probe
Conditions: GST-Bcl-2 1 nM, F-Bak probe 100 nM, Tb-anti-GST 1 nM; '<' = below limit of detection; read-out: TR-FRET Bcl-2 Binding Ki

Sequence of GST-Bc1-2 (P10415 whole entry): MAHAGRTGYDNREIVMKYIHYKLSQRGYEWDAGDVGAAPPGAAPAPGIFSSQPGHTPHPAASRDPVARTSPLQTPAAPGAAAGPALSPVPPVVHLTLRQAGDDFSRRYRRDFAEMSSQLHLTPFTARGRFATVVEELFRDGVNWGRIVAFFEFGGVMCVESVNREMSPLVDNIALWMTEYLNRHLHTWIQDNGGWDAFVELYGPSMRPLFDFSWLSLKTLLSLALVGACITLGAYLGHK

Structure (SMILES)	Ki
CN1CCN(Nc2ccc(S(=O)(=O)NC(=O)c3ccc(N4CCN(CC5=C(c6ccc(Cl)cc6)CC(C)(C)OC5)CC4)cc3Oc3cnc4[nH]ccc4c3)cc2[N+](=O)[O-])CC1 [Example 67, 4-(4-{[4-(4-chlorophenyl)-6,6-dimethyl-5,6-dihydro-2H-pyran-3-yl]methyl}piperazin-1-yl)-N-({4-[(4-methylpiperazin-1-yl)amino]-3-nitrophenyl}sulfonyl)-2-(1H-pyrrolo[2,3-b]pyridin-5-yloxy)benzamide]	< 10 pM
CC1(C)CCC(CN2CCN(c3ccc(C(=O)NS(=O)(=O)c4ccc(OCC#CCN5CCOCC5)c([N+](=O)[O-])c4)c(Oc4cnc5[nH]ccc5c4)c3)CC2)=C(c2ccc(Cl)cc2)C1 [Example 68, 4-(4-{[2-(4-chlorophenyl)-4,4-dimethylcyclohex-1-en-1-yl]methyl}piperazin-1-yl)-N-({4-[(4-morpholin-4-ylbut-2-ynyl)oxy]-3-nitrophenyl}sulfonyl)-2-(1H-pyrrolo[2,3-b]pyridin-5-yloxy)benzamide]	12 pM
C#Cc1cc(S(=O)(=O)NC(=O)c2ccc(N3CCN(CC4=C(c5ccc(Cl)cc5)CC(C)(C)CC4)CC3)cc2Oc2cnc3[nH]ccc3c2)cnc1OCC1CCOCC1 [Example 69, 4-(4-{[2-(4-chlorophenyl)-4,4-dimethylcyclohex-1-en-1-yl]methyl}piperazin-1-yl)-N-{[5-ethynyl-6-(tetrahydro-2H-pyran-4-ylmethoxy)pyridin-3-yl]sulfonyl}-2-(1H-pyrrolo[2,3-b]pyridin-5-yloxy)benzamide]	1160 pM
CC1(C)CCC(CN2CCN(c3ccc(C(=O)NS(=O)(=O)c4ccc5nc[nH]c(=O)c5c4)c(Oc4cnc5[nH]ccc5c4)c3)CC2)=C(c2ccc(Cl)cc2)C1 [Example 70, 4-(4-{[2-(4-chlorophenyl)-4,4-dimethylcyclohex-1-en-1-yl]methyl}piperazin-1-yl)-N-[(4-oxo-3,4-dihydroquinazolin-6-yl)sulfonyl]-2-(1H-pyrrolo[2,3-b]pyridin-5-yloxy)benzamide]	3960 pM
O=C(NS(=O)(=O)c1ccc(N[C@H]2CC[C@H](N3CCOCC3)CC2)c([N+](=O)[O-])c1)c1ccc(N2CCN(CC3=C(c4ccc(Cl)cc4)CCC4(CCCC4)C3)CC2)cc1Oc1cnc2[nH]ccc2c1 [Example 71, Trans-4-(4-{[8-(4-chlorophenyl)spiro[4.5]dec-7-en-7-yl]methyl}piperazin-1-yl)-N-({4-[(4-morpholin-4-ylcyclohexyl)amino]-3-nitrophenyl}sulfonyl)-2-(1H-pyrrolo[2,3-b]pyridin-5-yloxy)benzamide]	10 pM
CO[C@H]1CC[C@@H](CNc2ccc(S(=O)(=O)NC(=O)c3ccc(N4CCN(CC5=C(c6ccc(Cl)cc6)CC(C)(C)OC5)CC4)cc3Oc3cnc4[nH]ccc4c3)cc2[N+](=O)[O-])CC1 [Example 72, Cis-4-(4-{[4-(4-chlorophenyl)-6,6-dimethyl-5,6-dihydro-2H-pyran-3-yl]methyl}piperazin-1-yl)-N-[(4-{[(4-methoxycyclohexyl)methyl]amino}-3-nitrophenyl)sulfonyl]-2-(1H-pyrrolo[2,3-b]pyridin-5-yloxy)benzamide]	< 10 pM
O=C(NS(=O)(=O)c1ccc(OCC2(F)CCOCC2)c([N+](=O)[O-])c1)c1ccc(N2CCN(CC3=C(c4ccc(Cl)cc4)CCC4(CCCC4)C3)CC2)cc1Oc1cnc2[nH]ccc2c1 [Example 73, 4-(4-{[8-(4-chlorophenyl)spiro[4.5]dec-7-en-7-yl]methyl}piperazin-1-yl)-N-({4-[(4-fluorotetrahydro-2H-pyran-4-yl)methoxy]-3-nitrophenyl}sulfonyl)-2-(1H-pyrrolo[2,3-b]pyridin-5-yloxy)benzamide]	< 10 pM
CC1(C)CCC(c2ccc(Cl)cc2)=C(CN2CCN(c3ccc(C(=O)NS(=O)(=O)c4ccc(NCC5CCOCC5)c([N+](=O)[O-])c4)c(Oc4cnc5[nH]ccc5c4)c3)CC2)C1 [Example 75, 4-(4-{[2-(4-chlorophenyl)-5,5-dimethylcyclohex-1-en-1-yl]methyl}piperazin-1-yl)-N-({3-nitro-4-[(tetrahydro-2H-pyran-4-ylmethyl)amino]phenyl}sulfonyl)-2-(1H-pyrrolo[2,3-b]pyridin-5-yloxy)benzamide]	< 10 pM

From patent US8580794B2 (AbbVie Inc., priority 2009, dated 2013)
